# Measurements as given in publication PMC12040169 (PLOS Biology, 2025).
# Assay: in vitro
# Conditions: human, hela cells, % viability
row,Compound,"viability at 28.5 h, 10 µM"
1,CN(C)C(=O)COc1cccc(Nc2nc(Br)cn3ccnc23)c1 [CBK037989],92.8%
2,Cc1nc(CNCc2c(C(C)C)nn(C)c2N(C)C)cs1 [CBK305119],109%
3,OC(CNCc1ccc2c(c1)OCO2)CSc1ccccc1 (stereo not shown) [CBK074684],101%
4,CC(C)N(CC(N)=O)Cc1nc(-c2cccc(C(F)(F)F)c2)no1 [CBK306287],89.8%
5,COc1cccc(NC(=O)N[C@H]2CCN3C(=O)[C@@H](Cc4ccccc4)NC(=O)[C@H]23)c1 [CBK289230],94.5%
6,N#Cc1cn(Cc2ccco2)c(=O)[nH]c1=O [CBK010407],101%
7,Nc1cccc(Sc2cccc(C(F)(F)F)n2)c1 [CBK115239],99.3%
8,CCN(CC)CCCNc1nc2ccc(O)cc2s1 [CBK023880C],105%
9,Cc1noc(C2COCCN2C(=O)c2cc(Cl)cn2C)n1 (stereo not shown) [CBK305120],98.8%
10,Cc1cc(COc2ccc(C(F)(F)F)cn2)no1 [CBK115792],91.7%
11,Cc1ccc(C)c(NC(=O)C(C)Sc2nc3ccccc3nc2C)c1 (stereo not shown) [CBK296744],106%
12,CCN(CC)CCN1CCN(c2cncc(-c3cccc(N)c3)n2)CC1 [CBK065751],97.2%
13,CC1OCN(c2ccc(C(C)(C)C)cc2)Cn2c1nc1ccccc12 (stereo not shown) [CBK018706],88%
14,Cc1cc(CNC(=S)Nc2ccc(S(N)(=O)=O)cc2)nn1C [CBK267077],98.7%
15,COc1ccc2[nH]c3c(c2c1)CCOC31CCN(CCC(F)=C(F)F)CC1 [CBK040118],103%
16,COc1cccc(CCN2C(=O)CC3(C2=O)C(=O)N(C)c2ccc(OC)cc23)c1 (stereo not shown) [CBK075191],94.6%
17,COC(=O)c1cc(C)sc1NC(=S)Nc1cnn(Cc2cccc3ccccc23)c1 [CBK267098],101%
18,COc1cc(C(=O)NCCN2CCCC2)ccc1Nc1cncc(-c2ccc(O)cc2)n1 [CBK122661],96%
19,Sc1nnc(COc2ccc(Cl)cc2Cl)n1Cc1ccccc1 [CBK263138],88.2%
20,COc1c(Br)cc(/C=C2\SC(=O)NC2=O)cc1Br [CBK102455],101%
21,Cc1[nH]c2ccccc2c1C(=O)N1CCC(CC(=O)N2CCN(c3ccccc3)CC2)CC1 [CBK286033],96.6%
22,Fc1ccc(Oc2nccnc2N2CCN(Cc3ccc(Cl)cc3)CC2)cc1 [CBK083010T],80.4%

row,Compound,"viability at 28.5 h, 10 µM"
1,CCc1nnc(NS(C)(=O)=O)s1 [CBK062197],93%
2,Cc1noc(-c2ccccc2)c1CN1CCCN(S(=O)(=O)c2ccc(C(F)(F)F)cc2Cl)CC1 [CBK063104],103%
3,CC(=O)c1ccc(-c2nccnc2N[C@@H](CO)C(C)C)s1 [CBK037404],100%
4,Cn1cncc1CN1CCNC(=O)C1c1ccccc1C(F)(F)F (stereo not shown) [CBK305495],98%
5,Cc1nc2ccccc2nc1COC(=O)c1ccc(S(=O)(=O)N2CCCCC2C)cc1 (stereo not shown) [CBK297932],90.7%
6,Cc1cc(C)cc(NC(=O)c2ccc(CSc3nnc(N)s3)cc2)c1 [CBK266609],85.5%
7,COc1cc(-c2nccnc2N[C@@H]2CCN(Cc3ccccc3)C2)cc(OC)c1OC [CBK037651],96.7%
8,Cc1cc2n(n1)[C@@H](C(F)F)C[C@@H](C1CCCN(C(=O)C3CC3)C1)N2 (stereo partly shown) [CBK284723],98.7%
9,O=C(NC(=S)Nn1cnnc1)c1ccccc1 [CBK028188],125%
10,CCOc1cc(/C=C2\SC(=S)N(NC(=O)c3cccnc3)C2=O)ccc1O [CBK262759],105%
11,CC(C)(C)c1ccc(COn2c(=O)c(-c3ccccc3Cl)[n+]([O-])c3ccccc32)cc1 [CBK267494],101%
12,O=[N+]([O-])c1ccc(-c2ccc(/N=C/c3ccco3)cc2)cc1 [CBK261639],92.2%
13,CN(C)CCN(C)c1cccc(-c2ccc(CCC(=O)O)cc2)n1 [CBK036983],105%
14,Cc1cc2c(s1)c1cnn(CC(=O)NC3CC3)c(=O)c1n2C [CBK284246],90.5%
15,Cc1cc2nc(COC(=O)N3CCOCC3)[nH]c2cc1C [CBK200144],107%
16,O=C1C2C(c3ccc(F)cc3)NC(c3ccc(F)cc3)C1C(c1ccc(F)cc1)NC2c1ccc(F)cc1 (stereo not shown) [CBK261288],110%
17,O=C(NCc1cccs1)c1ccc(-n2ccnc2)c(-n2cccc2)c1 [CBK285366],102%
18,COC(=O)c1sccc1NC(=O)c1ccccc1Cl [CBK066860],65.5%
19,Cc1cc(C[C@@H]2COC[C@H]2NCc2cccc(Cl)c2)on1 [CBK284885],89.9%
20,CN(C)CCNC(=O)Cn1c(-c2cccs2)cc2cccnc21 [CBK282555],92.6%
21,COc1cccc2cc(C(=O)NCc3cccs3)oc12 [CBK149799],67.9%
22,CCC(C)c1ccc(NC(=O)CSc2nc3cccnc3[nH]2)cc1 (stereo not shown) [CBK264349],86.9%

row,Compound,"viability at 28.5 h, 10 µM"
1,Cn1cccc1C(=O)NCc1ccc(OC2CCNCC2)cc1 [CBK036360T],93%
2,O=C(Nc1ccccn1)c1cc(O)c(OCc2ccccc2)cn1 [CBK287989],89.5%
3,Cc1cc(=O)n2c(C(=O)Nc3ccc(C(=O)O)cc3)c(C(=O)Nc3cccc(C)c3C)sc2n1 [CBK297547],89.5%
4,COCCNC(=O)c1ccc(-n2ccnc2)c(-n2cccc2)c1 [CBK285369],85.5%
5,CN1CCC(C(=O)NC(=O)NCCOc2cccc3ccccc23)CC1 [CBK051100],90.1%
6,OCCCc1nc2ccccc2n1CCOc1ccccc1 [CBK297728],97.8%
7,Nc1ccc(-c2cn3ccnc3c(NCc3ccccc3)n2)cc1 [CBK066592],108%
8,CN(C)C(=O)Cn1c(=O)n(Cc2cccs2)c2ncccc21 [CBK283902],81.7%
9,NC(=O)CN1CCC(Oc2nccnc2OCC2COc3ccccc3O2)CC1 (stereo not shown) [CBK082987T],92.1%
10,Cc1sc2c(C3CCN(C(=O)C4CC4C)CC3)nc(C)n2c1C (stereo not shown) [CBK285299],66.4%
11,Cc1nc2ccc(C(=O)N3CCN(C4CCCCC4)C(=O)C3)cc2[nH]1 [CBK282131],86.5%
12,CCOC(=O)C1CCN(Cc2nc(-c3ccc(OC)c(OC)c3)no2)CC1 [CBK268852],92.4%
13,O=C(CCN1CCN(Cc2ccccc2)CC1)Nc1ccc(F)cc1 [CBK264261],77%
14,COCCOc1ccc(C(=O)N[C@@H]2CNCCC[C@H]2O)cc1 [CBK289071],94.6%
15,O=C(Nc1cccc(N2CCNCC2)c1)c1ccnc2ccccc12 [CBK029416T],95.5%
16,Cc1nn(-c2ccccc2)c(O)c1/C=N/c1ccccc1Sc1c(C)n[nH]c1C [CBK262048],89.1%
17,CN1CCN(C(=O)CSc2nc(-c3cccs3)cc(C(F)(F)F)n2)CC1 [CBK307372],92.3%
18,O=C(c1[nH]c2ccccc2c1NS(=O)(=O)Cc1ccccc1[N+](=O)[O-])N1CCOCC1 [CBK050079],107%
19,COc1cc(OC)cc(C(=O)Nc2cc(C)c3c(=O)oc4ccccc4c3n2)c1 [CBK291221],95.2%
20,Cc1ccc(C(=O)Nc2nc(C)c(-c3n[nH]c(=S)n3C)s2)cn1 [CBK295327],91.8%
21,CC1CC(C)CN(C(=O)CN2C(=O)N3CCN=C3c3ccccc32)C1 (stereo not shown) [CBK283960],90%
22,O=C1c2ccccc2C(=O)N1CCN1CCN(Cc2ccccc2)CC1 [CBK074813],110%

row,Compound,"viability at 28.5 h, 10 µM"
1,O=C(O)c1ccc(S(=O)(=O)c2ccc3c(c2)C(=O)N(c2ccccc2-c2ccccc2)C3=O)cc1 [CBK262760],101%
2,CC1CCN(S(=O)(=O)c2cc(S(=O)(=O)N3CCC(C)CC3)c3cccc4c3c2NC4=O)CC1 [CBK263716],91.2%
3,O=C(C1CCCC1)N1CCc2nc(-c3ccccc3)[nH]c(=O)c2C1 [CBK282331],99%
4,COc1ccc2[nH]cc(CC(=O)N3CCCC4(CCN(C(=O)c5cc(F)c(F)cc5F)C4)C3)c2c1 (stereo not shown) [CBK131562],88.6%
5,CN1CC[C@]2(c3ccc4c(c3)nnn4C)CC[C@@H](NC(=O)Nc3cccc(C(F)(F)F)c3F)C[C@H]12 [CBK067410],99.9%
6,COCCNS(=O)(=O)c1cccc2c1CN(C(=O)c1ccccc1)CC2 [CBK306539],106%
7,O=C(NCCc1cccnc1)C1CCCN(c2nc3c(-c4ccccc4)csc3c(=O)[nH]2)C1 (stereo not shown) [CBK215495],88.7%
8,O=C(CN(Cc1ccccc1)S(=O)(=O)c1cc(Cl)ccc1Cl)Nc1cccc(F)c1 [CBK264664],89.3%
9,COc1ccc2oc(C(=O)NC(C)c3cn(C)nc3C)cc2c1 (stereo not shown) [CBK281573],90.9%
10,O=C(CCn1cccn1)NCC1CCCOC1 (stereo not shown) [CBK281474],110%
11,COCCC(=O)N1CCC(F)CC1 [CBK200399],99.1%
12,CC(=O)Nc1cccc(-c2cnc(N)c(NCc3cccnc3)n2)c1 [CBK063562],103%
13,COc1ccc(CC(=O)Nc2nnc(C)s2)cc1OC [CBK287359],113%
14,C/C(=N\NC(=O)CNC(=O)c1ccc(Br)cc1)c1ccccc1 [CBK262020],103%
15,Cc1nc(NS(=O)(=O)c2cccc(Cl)c2C)sc1C(=O)O [CBK045561],110%
16,C=CCn1c(Cc2csc(NC(=O)c3cc(C)cc(C)c3)n2)n[nH]c1=S [CBK295358],77%
17,COc1ccc(N(CCC#N)S(=O)(=O)c2cccc3nsnc23)cc1 [CBK025851],90.7%
18,CC(C)NC(=O)NC1CCCc2nc(N3CCC(CO)CC3)ncc21 (stereo not shown) [CBK307002],83.3%
19,O=C1Cc2ccccc2C2(CCN(C(=O)NCc3cccc(F)c3)CC2)N1 [CBK047288],81%
20,OC(CNCCc1ccccc1)CN1c2ccccc2Sc2ccccc21 (stereo not shown) [CBK264017G],97.6%
21,Cc1cc(CN(C)Cc2c(C)nn(-c3ccc(F)cc3)c2C)n[nH]1 [CBK281990],95%
22,CC(=O)Nc1nc(-c2cccs2)c(-c2cc(C)no2)s1 [CBK284493],98.9%
